Source: PubChem BioAssay AID1508591
“And” between values parts separate entries of the source, which are not always exact repeats. Equal entries are not always repeated.

Conditions: rat; liver microsomes; pH 7.4; 15.0 min; 1.0 µM

Structure (SMILES)	half-life
Cc1nn(Cc2ccccc2Cl)c(C)c1CN(C)CC(O)COc1ccc(Cl)cc1 (stereo unspecified)	2.2 min
CCN(CCO)CCCOc1ccc2c(Nc3cc(CC(=O)Nc4cccc(F)c4)[nH]n3)ncnc2c1	1.88 min
Cc1ccnc(C)c1C(=O)Nc1cccc([S+](=O)([O-])N(C)C)c1	> 30 min
CCOc1ccc(CCNC(=O)c2ccccc2)cc1OCC	1.5 min
CC(=O)c1c(C)[nH]c(C(=O)N(C)C)c1C	> 30 min
OCc1ccc(-c2ccc(-c3ccc(CO)s3)o2)s1	6.18 min
Nc1nc2c(s1)C(c1cc(Cl)ccc1F)CC(=O)N2 (stereo unspecified)	> 30 min
COc1ccc(C)cc1-n1nnnc1Sc1ncnc2scc(-c3ccc(Br)cc3)c12	2.1 min
CCOc1ccc(-c2nc(SCC(=O)Nc3ccc(C)c(C)c3)n3[nH]c(=O)cc3n2)cc1	19.9 min
Nc1c(-c2ccccc2)cc[nH]c1=O	> 30 min
c1cc(-c2cc(-c3ccncc3)c3cncn3c2)c2cc[nH]c2c1	5.63 min
COc1ccc(-c2ccc3nc(-c4ccc(SC)cc4)oc3c2)c(OC)c1OC	1.8 min
O=C(Nc1ccc([S+](=O)([O-])Nc2nccs2)cc1)c1ncn[nH]1	> 30 min
Cc1ccc(S(=O)(=O)Nc2cc(C(=O)Nc3nc(-c4ccccc4)cs3)ccn2)cc1	> 30 min
CC(=O)N1CCc2cc(S(=O)(=O)NCCC3=CCCCC3)ccc21	1.3 min
O=C(NCCCc1ccccc1)C1CCN(c2nc(-c3ccc(Br)cc3)cs2)CC1	2.96 min
Cc1cc(C)c(C(=O)Nc2cccc([S+](=O)([O-])N3CCCCCC3)c2)[nH]1	1.7 min
Cc1cccc(-n2cnc3cc(C(=O)N4CCC(Br)CC4)ccc32)c1	2.5 min
CN(C(=O)COC(=O)c1csc(NCc2ccccc2)n1)c1ccccc1	1.4 min
O=C1CCCC2=C1C(c1[nH]ncc1Br)N=C(Nc1nc3ccccc3o1)N2 (stereo unspecified)	14 min
Cn1cnc2c(F)c(Nc3ccc(Br)cc3Cl)c(C(=O)NOCCO)cc21	> 30 min
CC(=O)c1c(C)[nH]c(C(=O)Nc2ccc(OCCCN(C)C)c(S(=O)(=O)Nc3ccc(Br)cc3)c2)c1C	> 30 min
CN=C1CN=C(c2ccc[nH]2)c2cc(Cl)ccc2N1	> 30 min and 23 min
Cc1ccc(-c2c(CN3CCN(c4cccc(C(F)(F)F)c4)CC3)csc2C)cc1	18.5 min
COc1cccc(NS(=O)(=O)c2ccc(NCc3cccc(OC)c3O)cc2)c1	4 min
Cc1ccnc(NC(=S)N2CCN(c3ccc(C(F)(F)F)cc3)CC2)c1	> 30 min

Structure (SMILES)	half-life
C[C@@H](c1ccc2nccn2c1)n1nnc2ncc(-c3cnn(C)c3)nc21	> 30 min
NC(=O)C1CCN(c2nccc(-c3ccc(Br)cc3)n2)CC1	19.3 min
COCCN1CCNc2nc(COc3ccc(C(C)C)cc3)n(Cc3ccccc3)c2C1=O	1.82 min
O=C(Cc1ccccc1)Nc1ccc(S(=O)(=O)Nc2nccs2)cc1	> 30 min
COCCNC(=O)[C@H]1C[C@H](Oc2ccccc2)CN1Cc1ccc2[nH]ccc2c1	0.97 min
CCCc1cc(C)[nH]c(=O)c1CNC(=O)c1cc(-c2ccc(N3CCN(C(C)C)CC3)nc2)cc2c1cnn2C(C)C	25 min
CCCCCn1c(CCCNC(=O)c2ccccc2OC)nc2ccccc21	1.31 min
CN(C)C(=O)c1nc(-c2ccc(Cl)cc2Cl)c2cnccn12	6.29 min
CCOC(=O)N1CCN(C(=O)Cn2sc3nc(C)cc(C)c3c2=O)CC1	> 30 min
CO[C@@H]1[C@H](N(C)C(=O)c2ccccc2)C[C@H]2O[C@]1(C)n1c3ccccc3c3c4c(c5c6ccccc6n2c5c31)C(=O)NC4	6.54 min
O=S(=O)(Nc1nccs1)c1ccc(NCc2cc(F)ccc2O)cc1	12 min
O=C(Nc1ccc(N2CCC(N3CCCCC3)CC2)c(C(=O)O)c1)c1ccc(Br)cc1	> 30 min
O=C(Nc1nnc(-c2ccc(Cl)cc2)o1)c1ccc(Cl)c(Cl)c1	3.9 min
COc1cc2c(cc1NC(=O)COc1ccc(Cl)cc1)oc1ccccc12	8.77 min
C=C1[C@@H](C)C2[C@H](Cc3ccccc3)NC(=O)[C@@]23C(/C=C/C[C@H](C)C[C@@](C)(O)/C=C/[C@@H]3OC(C)=O)[C@@H]1O (stereo partly specified)	5.2 min
COc1ccccc1C(=O)N1CCc2cc(-c3nc(NC(=O)Cc4ccc5c(c4)OCO5)sc3C)ccc21	9.6 min
CC(C)c1ccccc1-c1ncc(F)c(NC2(c3ccc(-c4cccnc4)cc3)CC2)n1	8.9 min
COc1ccc(NC(=O)c2ccccc2)cc1S(=O)(=O)Nc1ccc(Br)cc1	7.7 min
Cc1noc(C)c1-c1ccc(Nc2nc(-c3ccncc3)nc3ccccc23)cc1F	10 min
COc1cccc(N2CCN(c3ncc4c(n3)CCN(Cc3ccc(Br)cc3)C4)CC2)c1	18.2 min
Cc1cc(-c2nnc3n2CCCCC3)c(C)n1-c1ccc(Cl)c(Cl)c1	1.9 min
CCCCCCOc1ccc(OC(=O)c2ccncc2)cc1	2.32 min
CC(C)Oc1cccc(C2CC(=O)Nc3cc4c(cc32)OCO4)c1 (stereo unspecified)	3.46 min
O=C1Nc2cc(Cl)ccc2/C1=C\c1cc(Cl)c(O)c(Cl)c1	> 30 min
O=C(Nc1ccc(Cl)cc1)Nc1ccc(Cl)c(Cl)c1	> 30 min
Cc1ccc(NS(=O)(=O)c2cccc(C(=O)O)c2)cc1S(=O)(=O)N1CCOCC1	> 30 min

Structure (SMILES)	half-life
CCc1ccc(NC(=O)CSC2=Nc3ccccc3C3=NC(CC(=O)NCc4ccc5c(c4)OCO5)C(=O)N23)cc1 (stereo unspecified)	2.86 min
NC(=O)C1CCN(c2ncnc(-c3ccc4c(c3)OCCCO4)n2)CC1	17.3 min
O=C(Cc1ccc(Cl)c(Cl)c1)Nc1ccc([S+](=O)([O-])Nc2ccccn2)cc1	8.3 min
N#Cc1ccccc1Nc1ncc(-c2cccc3ccccc23)o1	5.8 min
O=C(Nc1cccc(Cc2ccccc2)c1)c1ccc(-c2cccc([N+](=O)[O-])c2)o1	2.5 min
Fc1ccc(Nc2nc(-c3ccnc(N4CCCCC4)c3)nc3ccccc23)cc1F	26 min
CC[C@H](NC(=O)c1c(O)c(-c2ccccc2)nc2ccccc12)c1ccccc1	> 30 min
c1ccc(-c2cc(Nc3nc(-c4ccncc4)nc4ccccc34)n[nH]2)cc1	11 min
O=S(=O)(Nc1nccs1)c1ccc(NCc2cc(Cl)ccc2O)cc1	11 min
COc1ccc(S(=O)(=O)N(C(=O)C(C)C)c2ccc3oc(=O)sc3c2)cc1	2.2 min
Cc1ccc(S(=O)(=O)NCC(=O)Nc2nc(-c3ccccc3)cs2)cc1	2.1 min
Nc1nccc2c1ncn2[C@@H]1C=C(CO)[C@@H](O)[C@H]1O	> 30 min
O=C(Nc1cccc(OC(F)(F)F)c1)c1cc(-c2ccc[nH]2)n[nH]1	20.9 min
COc1ccc(NC(=O)c2c(C)cccc2C)cc1[S+](=O)([O-])N1CCCCCC1	1.8 min
OCc1cccc(-c2cc(-c3cccnc3)c3cncn3c2)c1	22 min
O=C(c1ccc2c(c1)OCO2)N1CCC(Cc2nc(-c3cnccn3)no2)CC1	> 30 min
CC(C)NC(=O)c1nc(-c2ccc(Cl)nc2)c2cnccn12	> 30 min
Cc1cccc(CN2CCN(c3ccccn3)CC2)c1	2.4 min
COC12C(COC(N)=O)C3=C(C(=O)C(C)=C(N)C3=O)N1CC1C2N1C (stereo unspecified)	> 30 min
O=C(Nc1ncc(Cc2ccc(C(F)(F)F)cc2)s1)c1ccco1	> 30 min
NC(=O)C1CCN(c2nc(-c3cccnc3)cs2)CC1	> 30 min
CC(C)Oc1ccc(-c2ccc(=O)n(CC(=O)NCCc3ccccc3)n2)cc1	1.6 min
Cc1cc(C)nc(NS(=O)(=O)c2ccc(NC(=S)NC(=O)COc3ccc(Br)cc3Cl)cc2)n1	> 30 min
COc1ccc(-c2noc(CSc3nnc(Cc4ccccc4)n3-c3ccc(F)cc3)n2)cc1	1.69 min
Nc1ccc(CNc2ccc([S+](=O)([O-])Nc3nccs3)cc2)c(O)c1	> 30 min
O=C(c1cc2ccccc2[nH]1)N1CCc2c(n(Cc3cccnc3)n(CCc3ccccc3)c2=O)C1	1.55 min

Structure (SMILES)	half-life
CCOc1ccc(N2CC(c3nc(-c4cc(OC)c(OC)c(OC)c4)no3)CC2=O)cc1 (stereo unspecified)	7.3 min
Cc1ccc(S(=O)(=O)Nc2ccccc2C(=O)Nc2cccc(-c3ccccc3)c2)cc1	3.5 min
OCc1ccc(-c2nn(Cc3ccccc3)c3ccccc23)o1	5.17 min
CCOc1ccc(CCNC(=O)c2cc3sccc3n2Cc2ccccn2)cc1OCC	1.5 min
Cc1ccc(S(=O)(=O)Nc2ccc(Cl)cc2C(=O)Nc2nc(-c3ccccc3)cs2)cc1	3.4 min
CN1CCCN(C(c2ccccc2)c2ccc(Cl)cc2)CC1 (stereo unspecified)	2.89 min
Cc1ccc(S(=O)(=O)Nc2ccc(C(=O)Nc3ncc(-c4ccccc4)s3)cc2)cc1	11 min
Cc1ccc(N2CCC(CNc3nc(-c4ccccc4C(C)C)ncc3F)CC2)cn1	2.4 min
CC[C@H]1NC(=O)[C@@H](NC(=O)c2ncccc2O)[C@@H](C)OC(=O)[C@H](c2ccccc2)NC(=O)[C@@H]2CC(=O)CCN2C(=O)[C@H](Cc2ccccc2)N(C)C(=O)[C@@H]2CCCN2C1=O	> 30 min
Cc1c(-c2cccc3c(CCCOc4cccc5ccccc45)c(C(=O)O)n(Cc4cccnc4)c23)c(COc2ccc(N3CCN([S+](=O)([O-])N(C)C)CC3)cc2)nn1C	12 min
Cn1c(=O)c2cc(C(=O)NCCCN3CCN(c4ccccc4F)CC3)sc2c2ccccc21	1.97 min
CN(C)c1ccc(S(=O)(=O)N2CCCCC2)cc1NS(=O)(=O)c1ccc2ccccc2c1	1.34 min
NC(=O)C1CCN(c2ncc(-c3ccc4c(c3)OCCO4)s2)CC1	4.94 min
CNc1nc2c(s1)C(c1ccccc1F)CC(=O)N2 (stereo unspecified)	3.51 min
CC(C)CNc1ccnc(NCc2csc(-c3ccccc3)n2)n1	2.07 min
CCc1ccc(NC(=O)c2[nH]c(C)c(C(C)=O)c2C)cc1[S+](=O)([O-])N1CCCCCC1	2.1 min
Cc1ccnc(NC(=S)N2CCN(c3cccc(C(F)(F)F)c3)C[C@@H]2C)c1	7.12 min
COc1cccc(NC(=O)c2cccc3c(=O)c4c([nH]c23)CCCC4)c1	16.3 min
C#CC1(O)CCC2C3CCC4=C/C(=N/OCC(=O)NCC(=O)NC(C(=O)O)C(C)C)CC[C@]4(C)C3CC[C@@]21C (stereo partly specified)	> 30 min
COc1ccc2[nH]c(=O)c(-c3noc(-c4ccccc4)n3)cc2c1	> 30 min
Cc1ccc(S(=O)(=O)Nc2cnccc2C(=O)Nc2nc(C(=O)O)cs2)cc1	> 30 min
Nc1c(C(=O)N2CCCCC2)sc(=S)n1-c1ccccc1	6.6 min
CC(Nc1ncnc2c1cnn2-c1cccc(Cl)c1)c1ccccc1 (stereo unspecified)	23 min
